Measured values as given in PMC12549899 (Nature Communications, 2025).
Positions count from the first letter of the chain named. Where “and” joins values, the source holds several entries; their conditions need not be identical. Identical values can stand only once.

How the values were obtained:
DrOTOP1 L205W = biological target: T1, DrOTOP1 L205W (Danio rerio, UniProt Q7ZWK8, L205W); assay: Whole-cell patch-clamp, inhibition of acid-evoked currents, DrOTOP1 L205W; assay type: cell-based, zebrafish (Danio rerio); conditions: single cells or mean; for Inhibition of currents: 10 µM
T1 construct: A previously generated codon-optimized full-length DrOTOP1[8]; (UniProt: Q7ZWK8) construct; expressed in transfected cells; host or cells: HEK-293 (CRL-1573, ATCC)
T1 sequence (Q7ZWK8 1-586 L205W): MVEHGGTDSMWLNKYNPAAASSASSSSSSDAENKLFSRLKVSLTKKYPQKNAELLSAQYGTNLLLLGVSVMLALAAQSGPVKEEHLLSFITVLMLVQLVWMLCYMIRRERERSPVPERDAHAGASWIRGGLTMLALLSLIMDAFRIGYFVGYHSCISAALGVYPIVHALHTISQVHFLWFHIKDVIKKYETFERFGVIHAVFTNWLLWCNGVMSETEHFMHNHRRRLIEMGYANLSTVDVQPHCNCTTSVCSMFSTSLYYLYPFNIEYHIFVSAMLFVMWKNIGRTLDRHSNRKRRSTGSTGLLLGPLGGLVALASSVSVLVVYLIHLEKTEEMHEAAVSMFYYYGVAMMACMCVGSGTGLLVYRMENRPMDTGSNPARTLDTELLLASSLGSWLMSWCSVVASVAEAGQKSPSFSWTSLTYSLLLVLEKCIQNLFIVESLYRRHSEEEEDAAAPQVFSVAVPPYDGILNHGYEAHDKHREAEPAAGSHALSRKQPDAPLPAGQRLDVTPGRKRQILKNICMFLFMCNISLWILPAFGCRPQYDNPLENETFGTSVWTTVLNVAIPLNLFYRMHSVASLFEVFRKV
Excerpt: (§1) To functionally test the significance of the two binding sites identified by cryo-EM, we generated point mutations of DrOTOP1 using the binding poses and conformational changes observed in DrOTOP1_C2.2 to guide our mutations. As per the binding pose that best fits our cryo-EM density, C2.2 forms the following interactions in the outer site: hydrophobic packing against many non-polar residues W126, G130, M133, L134, F271, F570, and M573, and π-stacking with W532 (Fig. 5A). In addition, C2.2 could potentially form H-bonds with E267, if the sidechain is protonated or a water bridge is present, and with H574 if it moves closer (Fig. 5A). Likewise, C2.36 presents a heterocyclic nitrogen that can potentially form a H-bond with E267, similarly, provided a protonation or water bridge is present (Fig. 5B). In addition, C2.36 forms a T-shaped π-stacking interaction with H574, whose sidechain has rotated 90 degrees (compared to DrOTOP1_apo), presumably to accommodate the interaction (Fig. 5B). Considering other inhibitors discovered from the second round of screening, many contain functional groups like the carbonyl groups of Group 1 molecules and the heterocyclic nitrogen atoms of Group 2 molecules (Supplementary Fig. 3E), that can potentially form similar H-bonds with E267 as C2.2 and C2.36, assuming the binding modes are similar. In the central site, C2.2 binds with the following interactions: hydrophobic packing with residues V201, F271, A274, V278, and A388, π-stacking with F277, and H-bonding with E384 (Fig. 5C).
We next tested mutations of the central site (L205W, A274W, F277A, E384A L385W, A388W). V201W and S389W, two additional central site mutations, were excluded from the study due to complete loss of channel activity. […]
Whole-cell patch-clamp recording was performed as previously described[6],[22],[25]. Recordings were made with an Axopatch 200B amplifier, digitized with a Digidata 1322a 16-bit data acquisition system, acquired with pClamp 8.2 and analyzed with Clampfit 10 (Molecular Devices). […]

DrOTOP1 E384A = biological target: T2, DrOTOP1 E384A (Danio rerio, UniProt Q7ZWK8, E384A); assay: Whole-cell patch-clamp, inhibition of acid-evoked currents, DrOTOP1 E384A (central site); assay type: cell-based, zebrafish (Danio rerio)
T2 construct: A previously generated codon-optimized full-length DrOTOP1[8]; (UniProt: Q7ZWK8) construct; expressed in transfected cells; host or cells: HEK-293 (CRL-1573, ATCC)
T2 sequence (Q7ZWK8 1-586 E384A): T1 sequence (Q7ZWK8 1-586 L205W) with W205L, E384A
Excerpt: as §1
We next tested mutations of the central site (L205W, A274W, F277A, E384A L385W, A388W). V201W and S389W, two additional central site mutations, were excluded from the study due to complete loss of channel activity. Mutation of E384 to alanine is expected to disrupt potential hydrogen bonding with C2.2. Of note, E384 is one of the few charged residues in the central pocket and could form a salt bridge with K281, that could also be affected by the mutation. Additionally, in our DrOTOP1_C2.2 structure, we observed that F277 underwent a substantial rearrangement, likely to avoid steric clash and accommodate C2.2 binding. Thus, we introduced the F277A mutation to test if removing this steric clash would enhance C2.2 inhibition.
HEK-293 cells (CRL-1573, ATCC) were cultured in DMEM (Thermofisher 11995073) containing 10% fetal bovine serum (Life Technology 16000044) and Penicillin-Streptomycin (100 I.U./mL) and (100 µg/mL), respectively. Cells were transfected with WT DrOTOP1 or mutant DrOTOP1 channels in 35 mm petri dishes, with ~ 500 ng DNA and 2 μL TransIT-LT1 transfection reagent (Mirus Bio Corporation, Cat # MIR2300) following the manufacturer’s protocol. All constructs were subcloned into a pcDNA3.1 vector that adds an N-terminal fusion tag consisting of an octahistidine tag followed by eGFP, a Gly-Thr-Gly-Thr linker and a 3C protease cleavage site ([…]) followed by WT DrOTOP1, WT mOTOP1, WT hOTOP1, or mutated DrOTOP1. Point mutations were generated via In-Fusion Cloning (Takara) using single-stranded DNA primers generated through IDT and sequence confirmed by Sanger sequencing (GeneWiz).
Whole-cell patch-clamp recording was performed as previously described[6],[22],[25]. Recordings were made with an Axopatch 200B amplifier, digitized with a Digidata 1322a 16-bit data acquisition system, acquired with pClamp 8.2 and analyzed with Clampfit 10 (Molecular Devices). Recordings were sampled at 5 kHz and filtered at 1 kHz. Patch Pipettes with resistance of […] were fabricated from borosilicate glass, and only recordings with a giga-Ohm seal were used in analysis. Membrane potential was held at −80 mV for the duration of recordings. At the beginning of recordings and between, cells were washed with Tyrode’s solution (see below). […]

SMILES: C=C(C)COc1ccccc1NC(=O)c1nc[nH]c1C [C2.2]
- Inhibition of currents (DrOTOP1 L205W; mean): 69.03%
- Inhibition of currents (DrOTOP1 L205W; single cells): 76.6896% and 67.1049% and 68.1116% and 69.0311%
- inhibition at 10 µM (DrOTOP1 L205W): 64.2%
- Hill coefficient (DrOTOP1 E384A): 1.184
- inhibition at 3 µM (DrOTOP1 E384A; 3 µM, single cells): 10.2%
- inhibition at 10 µM (DrOTOP1 E384A; 10 µM, single cells or mean): ~40%
- inhibition at 30 µM (DrOTOP1 E384A; 30 µM, single cells): 70.7%
- inhibition at 100 µM (DrOTOP1 E384A; 100 µM, single cells): 96.3%
- inhibition at 300 µM (DrOTOP1 E384A; 300 µM, single cells): 97.3%
- IC50 (DrOTOP1 E384A; pH 5.5): 15.3 µM
